“Also recorded” adds a separate entry of the source.
Key:
Assay type in all cases: physicochemical
[1] = Stability at 40° C. and 75% of relative humidity, open vials, monitored by Raman spectroscopy and PXRD; details: for Stability in the reported conditions (heat and humidity): 40° C. and 75% r.h., summary statement; for Change of solid form by PXRD and Raman: open vials, 40° C., 75% relative humidity, after one and four weeks; for RESULTING FORM: Storage at 40° C. and 75% r.h., 28 d.
Protocol: Stability at 40° C. and 75% of relative humidity of atorvastatin 4-(nitrooxy)butyl ester A and form B in comparison with the amorphous form was assessed. Atorvastatin 4-(nitrooxy)butyl ester form A, form B and amorphous were stored in open vials for one month at 40° C. and in presence of 75% of relative humidity, and the samples were monitored by Raman spectroscopy and by PXRD after one and four weeks.

[2] = Stability of amorphous form in aqueous suspension at room temperature, monitored by Raman spectroscopy and PXRD; details: for RESULTING FORM: Suspension in H2O, rt
Protocol: Stability of amorphous atorvastatin 4-(nitrooxy)butyl ester in aqueous suspension was assessed. Amorphous atorvastatin 4-(nitrooxy)butyl ester was suspended in water at room temperature while stirring and monitored by Raman spectroscopy after one, seven and twenty-eight days.

[3] = General stability statements (humidity, water, organic solvents, heat); details: no test details

Change of solid form by PXRD and Raman ([1]; listed as amorphous atorvastatin 4-(nitrooxy)butyl ester) | RESULTING FORM ([2]; 1 d.) | RESULTING FORM ([2]; 1 d., listed as Amorphous atorvastatin 4-(nitrooxy)butyl ester) | RESULTING FORM ([2]; 7 d.) | RESULTING FORM ([2]; 28 d.) | RESULTING FORM ([2]; 28 d., listed as Amorphous atorvastatin 4-(nitrooxy)butyl ester) | RESULTING FORM [1] | Change of solid form by PXRD and Raman [1] | SMILES | Stability in the reported conditions (heat and humidity) ([1]; listed as Amorphous form) | RESULTING FORM ([2]; 7 d., listed as Amorphous atorvastatin 4-(nitrooxy)butyl ester) | Stability in aqueous suspension ([2]; room temperature, summary statement) | Stability (general statement) ([3]; listed as amorphous form of Atorvastatin 4-(nitrooxy)butyl ester) | Stability in the reported conditions (heat and humidity) [1] | Stability (general statement) [3]
converts to form B | Amorphous | pure amorphous | Amorphous (+B) | Amorphous + B | mixture of amorphous form and form B |  |  | CC(C)c1c(C(=O)Nc2ccccc2)c(-c2ccccc2)c(-c2ccc(F)cc2)n1CC[C@@H](O)C[C@@H](O)CC(=O)OCCCCO[N+](=O)[O-] [Amorphous, atorvastatin 4-(nitrooxy)butyl ester] | not stable, showing rapid conversion to form B | detectable amount of form B was observed; also recorded: start of crystallization of form B | not stable in aqueous suspension at room temperature | unstable at humidity conditions, in organic solvents and in stressed thermal conditions |  | 
 |  |  |  |  |  | Form A | no differences in the solid form | CC(C)c1c(C(=O)Nc2ccccc2)c(-c2ccccc2)c(-c2ccc(F)cc2)n1CC[C@@H](O)C[C@@H](O)CC(=O)OCCCCO[N+](=O)[O-] [Form A, (βR,δR)-2(4-fluorophenyl)-β,δ-dihydroxy-5-(1-methylethyl)-3-phenyl-4-[(phenylamino)carbon-yl]-1H-pyrrole-1-heptanoic acid 4-(nitrooxy)butyl ester] |  |  |  |  | stable in the reported conditions for at least four weeks | good stability in water, in organic solvents, and when exposed to heat and humidity
 |  |  |  |  |  | Form B | no differences in the solid form | CC(C)c1c(C(=O)Nc2ccccc2)c(-c2ccccc2)c(-c2ccc(F)cc2)n1CC[C@@H](O)C[C@@H](O)CC(=O)OCCCCO[N+](=O)[O-] [Form B, (βR,δR)-2(4-fluorophenyl)-β,δ-dihydroxy-5-(1-methylethyl)-3-phenyl-4-[(phenylamino)carbon-yl]-1H-pyrrole-1-heptanoic acid 4-(nitrooxy)butyl ester] |  |  |  |  | stable in the reported conditions for at least four weeks | good stability in water, in organic solvents, and when exposed to heat and humidity
